Reference: patent EP1282414B1, “FELBAMATE DERIVED COMPOUNDS FOR TREATING NEUROPATHIC PAIN” (University of Virginia Patent Foundation, priority 2000, dated 2001)
Marks after values point to notes of the source that are not given here.

Columns and labels:
[1] = test system: pentylenetetrazol; assay: Subcutaneous Metrazol seizure test (scMET), mice i.p.; assay type: in vivo, Carworth Farms No. 1 mice; details: for ScMET, number of animals protected / total number of animals tested: mice i.p.
Excerpt: (§1) The fluoro derivatives synthesized were submitted to the National Institute of Neurological Disorders and Stroke (NINDS) for evaluation in a standard panel of assays. Two convulsant tests (MES and scMET), and a toxicity screen (rotorod in mice, positional sense and gait in rats) were employed for evaluating the compounds activity as neuroprotecting agents. These testing procedures are described in detail in Molecular and Cellular Targets for Anti-epileptic Drugs, eds. G. Avanzini, G. Regesta, P. Tanganelli, M. Avoli, 1997, John Libbey & Company Ltd, pp 191-198. The felbamate derivatives were evaluated for anticonvulsant activity following intraperitoneal (i.p.) administration in mice and oral administration in rats.
This is a model that primarily identifies compounds that raise seizure threshold. With some minor exceptions, the pharmacological profile of the scMET seizure model is consistent with the human condition. The scMET test utilizes a dose of pentylenetetrazol (85 mg/kg in Carworth Farms No. 1 mice and 70 mg/kg in Sprague-Dawley rats) that induces clonic seizures lasting for a period of at least five seconds in 97 % (CD97) of animals tested. At the anticipated time of testing the convulsant is administered subcutaneously. The test compound is administered intraperitoneally in mice and orally in rats. Animals are observed over a 30 minute period. Absence of clonic spasms in the observed time period indicates a compound's ability to abolish the effect of pentylenetetrazol on seizure threshold.
For the MES and scMET tests the data is presented in the form of the number of animals protected by the administered compound / total number of animals tested. […] Qualitative data was obtained for fluoro felbamate 12 (Tables 1 and 2A), fluoro monocarbamate felbamate 13 (Tables 1 and 2B), and fluorodioxo 16 (Tables 1 and 2C) and for cyclic felbamate 21 (Tables 5 and 6B) and cyclic monocarbamate 22 (Tables 5 and 6A). More extensive quantitative data was also obtained for fluoro felbamate 12 in mice (Table 3) and rats (Table 4).

[2] = Minimal neurotoxicity (TOX), rotorod test, mice i.p.; assay type: in vivo; details: in vivo, ip; mouse, I.P.
Excerpt: as §1, with “G. Avanzini, G. Regesta, P. Tanganelli, M. Avoli, 1997, John Libbey & Company Ltd, pp 191-198.” left out, “rats. […]” for “rats.”

[3] = test system: mice; assay: as above; assay type: in vivo; details: for TOX, number of animals exhibiting toxic effects / total number of animals tested: mice i.p.
Excerpt: as §1, with “G. Avanzini, G. Regesta, P. Tanganelli, M. Avoli, 1997, John Libbey & Company Ltd, pp 191-198.” left out, “rats. […]” for “rats.”

[4] = test system: focal seizures; assay: Hippocampal kindling model (kindled rats), i.p.; assay type: in vivo, adult male Sprague-Dawley rats; design: key to Seizure Score ± S.E.M.: Racine seizure score (stage 5 = generalized seizure); details: for Number Protected / Number Tested / Afterdischarge Duration (sec) ± S.E.M / Seizure Score ± S.E.M.: i.p.
Excerpt: The hippocampal kindling model can be used to evaluate a compound's ability to affect both the expression and acquisition of focal seizures. The hippocampal kindling paradigm as described by Lothman and Williamson (Lothman, 1994) allows the temporal effects of a drug to be evaluated in a single animal. This procedure requires the surgical placement ofbipolar electrodes in the ventral hippocampus of adult male Sprague-Dawley rats. Stage five behavioral seizures are produced by using a stimulus consisting of a 50 Hz, 10 s train of 1 ms biphasic 200 uA pulses delivered every 30 min for 6 hours (12 stimuli per day) on alternating days for a total of 60 stimulations (five stimulus days). Prior to evaluating a candidate's anticonvulsant activity, a drug free control period consisting of supramaximal stimulations are recorded to verify the stability of a stage five generalized seizure.
A single dose of the candidate compound is then administered intraperitoneally (i.p.), 15 min following the last control stimulation. The anticonvulsant activity of the drug is assessed every 30 min for three to four hours starting 15 min after administering the test material. After each stimulation, individual Racine seizure scores and afterdischarge durations are recorded. Rats are used again in drug trials after four to five drug- and stimulus-free days.

[5] = Dose Responses, 25 mg/kg (time not given)
[6] = Dose Responses, 50 mg/kg (time not given)
[7] = Dose Responses, 100 mg/kg (time not given)

NC(=O)OCC(F)(COC(N)=O)c1ccccc1 [fluoro felbamate, 2-Fluoro-2-phenyl-1,3-propanediol dicarbamate]
ED50 ([1]; Mus musculus, ip, read-out: ScMET ED50): > 160 mg/kg | ScMET, number of animals protected / total number of animals tested ([1]; 30 mg/kg, 0.5h): 0/1 | ScMET, number of animals protected / total number of animals tested ([1]; 30 mg/kg, 4.0h): 0/1 | ScMET, number of animals protected / total number of animals tested ([1]; 100 mg/kg, 0.5h): 0/1 | ScMET, number of animals protected / total number of animals tested ([1]; 100 mg/kg, 4.0h): 0/1 | ScMET, number of animals protected / total number of animals tested ([1]; 300 mg/kg, 0.5h): 0/1 | ScMET, number of animals protected / total number of animals tested ([1]; 300 mg/kg, 4.0h): 0/1 | ED50 [2]: 115 mg/kg | TOX, number of animals exhibiting toxic effects / total number of animals tested ([3]; 3 mg/kg, 0.5h): 0/4 | TOX, number of animals exhibiting toxic effects / total number of animals tested ([3]; 3 mg/kg, 4.0h): 0/4 | TOX, number of animals exhibiting toxic effects / total number of animals tested ([3]; 10 mg/kg, 0.5h): 0/4 | TOX, number of animals exhibiting toxic effects / total number of animals tested ([3]; 10 mg/kg, 4.0h): 0/4 | TOX, number of animals exhibiting toxic effects / total number of animals tested ([3]; 30 mg/kg, 0.5h): 1/4 | TOX, number of animals exhibiting toxic effects / total number of animals tested ([3]; 30 mg/kg, 4.0h): 0/2 | TOX, number of animals exhibiting toxic effects / total number of animals tested ([3]; 100 mg/kg, 0.5h): 4/8 | TOX, number of animals exhibiting toxic effects / total number of animals tested ([3]; 100 mg/kg, 4.0h): 0/4 | TOX, number of animals exhibiting toxic effects / total number of animals tested ([3]; 300 mg/kg, 0.5h): 4/4 | TOX, number of animals exhibiting toxic effects / total number of animals tested ([3]; 300 mg/kg, 4.0h): 2/2 | safety ratio ([3]; mice, i.p., toxicity relative to MES ED50): at least five | change in afterdischarge duration (in words) ([4]; 100mg/kg): corresponding decrease | change in seizure score (in words) ([4]; 100mg/kg): significant drop | Number Protected / Number Tested ([4]; Dose Responses, 25 mg/kg): 0/7 | Afterdischarge Duration (sec) ± S.E.M [4, 5]: 71.43 ± 5.50 s | Seizure Score ± S.E.M. [4, 5]: 4.57 ± 0.20 | Number Protected / Number Tested ([4]; Dose Responses, 50 mg/kg): 3/7 | Afterdischarge Duration (sec) ± S.E.M [4, 6]: 68.57 ± 20.14 s | Seizure Score ± S.E.M. [4, 6]: 2.86 ± 0.83 | Number Protected / Number Tested ([4]; Dose Responses, 100 mg/kg): 7/8^a | Afterdischarge Duration (sec) ± S.E.M [4, 7]: 29.00 ± 10.86 s | Seizure Score ± S.E.M. [4, 7]: 1.50 ± 0.57 | Afterdischarge Duration (sec) ± S.E.M ([4]; 25 mg/kg, 15 min): 77.29 ± 4.91 s | Seizure Score ± S.E.M. ([4]; 25 mg/kg, 15 min): 4.86 ± 0.14 | Afterdischarge Duration (sec) ± S.E.M ([4]; 25 mg/kg, 45 min): 71.43 ± 5.50 s | Seizure Score ± S.E.M. ([4]; 25 mg/kg, 45 min): 4.57 ± 0.20 | Afterdischarge Duration (sec) ± S.E.M ([4]; 25 mg/kg, 75 min): 64.43 ± 11.19 s | Seizure Score ± S.E.M. ([4]; 25 mg/kg, 75 min): 4.00 ± 0.69 | Afterdischarge Duration (sec) ± S.E.M ([4]; 25 mg/kg, 105 min): 70.29 ± 4.85 s | Seizure Score ± S.E.M. ([4]; 25 mg/kg, 105 min): 4.57 ± 0.20 | Afterdischarge Duration (sec) ± S.E.M ([4]; 25 mg/kg, 135 min): 53.86 ± 9.33 s | Seizure Score ± S.E.M. ([4]; 25 mg/kg, 135 min): 4.43 ± 0.57 | Afterdischarge Duration (sec) ± S.E.M ([4]; 25 mg/kg, 165 min): 59.29 ± 3.28 s | Seizure Score ± S.E.M. ([4]; 25 mg/kg, 165 min): 4.71 ± 0.18 | Afterdischarge Duration (sec) ± S.E.M ([4]; 25 mg/kg, 195 min): 54.00 ± 9.62 s | Seizure Score ± S.E.M. ([4]; 25 mg/kg, 195 min): 3.86 ± 0.67 | Afterdischarge Duration (sec) ± S.E.M ([4]; 25 mg/kg, 225 min): 53.29 ± 9.03 s | Seizure Score ± S.E.M. ([4]; 25 mg/kg, 225 min): 4.00 ± 0.69 | Afterdischarge Duration (sec) ± S.E.M ([4]; 25 mg/kg, 255 min): 64.00 ± 3.42 s | Seizure Score ± S.E.M. ([4]; 25 mg/kg, 255 min): 4.86 ± 0.14 | Afterdischarge Duration (sec) ± S.E.M ([4]; 50 mg/kg, 15 min): 67.14 ± 12.39 s | Seizure Score ± S.E.M. ([4]; 50 mg/kg, 15 min): 3.86 ± 0.70 | Afterdischarge Duration (sec) ± S.E.M ([4]; 50 mg/kg, 45 min): 68.57 ± 20.14 s | Seizure Score ± S.E.M. ([4]; 50 mg/kg, 45 min): 2.86 ± 0.83 | Afterdischarge Duration (sec) ± S.E.M ([4]; 50 mg/kg, 75 min): 63.00 ± 17.45 s | Seizure Score ± S.E.M. ([4]; 50 mg/kg, 75 min): 3.14 ± 0.83 | Afterdischarge Duration (sec) ± S.E.M ([4]; 50 mg/kg, 105 min): 60.86 ± 14.93 s | Seizure Score ± S.E.M. ([4]; 50 mg/kg, 105 min): 3.43 ± 0.90 | Afterdischarge Duration (sec) ± S.E.M ([4]; 50 mg/kg, 135 min): 65.00 ± 13.10 s | Seizure Score ± S.E.M. ([4]; 50 mg/kg, 135 min): 3.71 ± 0.64 | Afterdischarge Duration (sec) ± S.E.M ([4]; 50 mg/kg, 165 min): 43.14 ± 14.67 s | Seizure Score ± S.E.M. ([4]; 50 mg/kg, 165 min): 2.71 ± 0.97 | Afterdischarge Duration (sec) ± S.E.M ([4]; 50 mg/kg, 195 min): 52.86 ± 14.59 s | Seizure Score ± S.E.M. ([4]; 50 mg/kg, 195 min): 3.14 ± 0.83 | Afterdischarge Duration (sec) ± S.E.M ([4]; 50 mg/kg, 225 min): 39.86 ± 10.98 s | Seizure Score ± S.E.M. ([4]; 50 mg/kg, 225 min): 3.00 ± 0.87 | Afterdischarge Duration (sec) ± S.E.M ([4]; 50 mg/kg, 255 min): 33.29 ± 11.76 s | Seizure Score ± S.E.M. ([4]; 50 mg/kg, 255 min): 2.57 ± 0.72 | Afterdischarge Duration (sec) ± S.E.M ([4]; 100 mg/kg, 15 min): 40.75 ± 15.74 s | Seizure Score ± S.E.M. ([4]; 100 mg/kg, 15 min): 1.75 ± 0.73 | Afterdischarge Duration (sec) ± S.E.M ([4]; 100 mg/kg, 45 min): 29.00 ± 10.86 s | Seizure Score ± S.E.M. ([4]; 100 mg/kg, 45 min): 1.50 ± 0.57 | Afterdischarge Duration (sec) ± S.E.M ([4]; 100 mg/kg, 75 min): 38.63 ± 12.58 s | Seizure Score ± S.E.M. ([4]; 100 mg/kg, 75 min): 1.88 ± 0.67 | Afterdischarge Duration (sec) ± S.E.M ([4]; 100 mg/kg, 105 min): 53.38 ± 12.59 s | Seizure Score ± S.E.M. ([4]; 100 mg/kg, 105 min): 2.38 ± 0.65 | Afterdischarge Duration (sec) ± S.E.M ([4]; 100 mg/kg, 135 min): 33.63 ± 12.88 s | Seizure Score ± S.E.M. ([4]; 100 mg/kg, 135 min): 2.00 ± 0.76 | Afterdischarge Duration (sec) ± S.E.M ([4]; 100 mg/kg, 165 min): 43.38 ± 12.79 s | Seizure Score ± S.E.M. ([4]; 100 mg/kg, 165 min): 2.75 ± 0.65 | Afterdischarge Duration (sec) ± S.E.M ([4]; 100 mg/kg, 195 min): 45.25 ± 13.33 s | Seizure Score ± S.E.M. ([4]; 100 mg/kg, 195 min): 2.25 ± 0.70 | Afterdischarge Duration (sec) ± S.E.M ([4]; 100 mg/kg, 225 min): 47.38 ± 14.80 s | Seizure Score ± S.E.M. ([4]; 100 mg/kg, 225 min): 2.50 ± 0.73 | Afterdischarge Duration (sec) ± S.E.M ([4]; 100 mg/kg, 255 min): 45.38 ± 13.92 s | Seizure Score ± S.E.M. ([4]; 100 mg/kg, 255 min): 2.50 ± 0.65
